Several values for one entry are separate records, joined by “and”; a condition that tells them apart may be missing. Equal entries are not always repeated. Where two headings read alike, the source gives them in different places.
Assays:
[1] = From the text: It is a white to off-white crystalline solid, that is soluble in water, but insoluble in alcohol. The aqueous solution is practically neutral with a pH ranging from 6.5 to 9.0. The molecular formula is Na2S2O3. It has a molecular weight of 158.11 g/mol. The structural formula is: […]
[2] = Dynamic vapor sorption (DVS) isotherm; conditions: for DVS weight loss upon desorption: hysteresis observed
[3] = cited from earlier work
[4] = system: pediatric patients being treated with a platinum based chemotherapeutic
From the text: These adverse events comprise grade 3 or grade 4 neutropenia, reduced glomerular filtration rates, increased serum creatinine, infection, hypomagnesemia, hypernatremia, vomiting, or nausea.

[5] = for Cisplatin Concentration: 24° C.
Description: The method uses a Waters Acquity H-Class HPLC system with an Imtakt Scherzo SW-C18 mixed mode column. The HPLC method conditions are outlined in Table 7. […] This range covers greater than two orders of magnitude at dose-relevant concentrations.
Each sample was transferred to an HPLC vial and placed in an autosampler chamber held at 24° C. Samples were injected onto the HPLC system approximately every 30 minutes to obtain 4 time-points for each sample. A gradient was run and the retention time and peak area were obtained.

[6] = system: pediatric patients being treated with platinum based chemotherapeutics
From the text: Reference is made to International Patent Application Publication No. WO 2019/108592, which is a continuation of U.S. patent application Ser. No. 15/826,243, filed on Nov. 29, 2017, both of which are incorporated by reference herein in their entirety.

[7] = animals
[8] = system: small cell lung cancer cell cultures; conditions: cited from earlier work
[9] = thiosulfate:cisplatin 5:1 (n = 2)
[10] = thiosulfate:cisplatin 6:1 (n = 2)
[11] = thiosulfate:cisplatin 10:1 (n = 2)

O=S([O-])([O-])=S.[Na+].[Na+] [anhydrous sodium thiosulfate, Sodium thiosulfate anhydrous]
solubility in alcohol ([1]; alcohol): insoluble
solubility in water ([1]; water): soluble
DVS weight change upon equilibration to 0% relative humidity ([2]; 0% relative humidity): minimal weight change
DVS weight loss upon desorption [2]: 51%
DVS weight gain upon sorption [2]: 165%

O.O.O.O.O.O=S([O-])([O-])=S.[Na+].[Na+] [sodium thiosulfate pentahydrate]
DVS weight loss upon desorption [2]: 51%
DVS weight loss upon drying ([2]; drying): 27%
DVS weight gain upon sorption [2]: 81%

Sodium thiosulfate [STS]
biological half-life, range ([3]; dependent on dose): 16.5-182 minutes
biological half-life ([3]; following IV administration): 0.65 hours
excreted in the urine unmodified ([3]; following IV administration): Up to 95%
serum sodium levels ([4]; doses of STS equivalent to 12.8 g/m^2 sodium thiosulfate for injection): small, transient increase
renal or other toxicities ([4]; pediatric patients treated with a platinum based chemotherapeutic): not exacerbate renal or other toxicities
Half-life (time to reach 333/2 μM cisplatin) [5, 9]: 3.3 h
Slope (linear regression of cisplatin conc. vs. time) [5, 9]: −0.80 Cisplatin Area/min
Cisplatin Concentration ([5]; thiosulfate:cisplatin 5:1, 4 min): 323.7 µM
Cisplatin Concentration ([5]; thiosulfate:cisplatin 5:1, 37 min): 294.2 µM and 294.0 µM
Cisplatin Concentration ([5]; thiosulfate:cisplatin 5:1, 70 min): 266.8 µM and 268.0 µM
Cisplatin Concentration ([5]; thiosulfate:cisplatin 5:1, 103 min): 243.7 µM and 245.3 µM
Half-life (time to reach 333/2 μM cisplatin) [5, 10]: 3.07 h
Slope (linear regression of cisplatin conc. vs. time) [5, 10]: −0.87 Cisplatin Area/min
Cisplatin Concentration ([5]; thiosulfate:cisplatin 6:1, 5 min): 325.4 µM and 324.5 µM
Cisplatin Concentration ([5]; thiosulfate:cisplatin 6:1, 38 min): 286.4 µM and 293.2 µM
Cisplatin Concentration ([5]; thiosulfate:cisplatin 6:1, 71 min): 259.8 µM and 266.2 µM
Cisplatin Concentration ([5]; thiosulfate:cisplatin 6:1, 104 min): 235.6 µM and 240.5 µM
Half-life (time to reach 333/2 μM cisplatin) [5, 11]: 2.27 h
Slope (linear regression of cisplatin conc. vs. time) [5, 11]: −1.13 Cisplatin Area/min
Cisplatin Concentration ([5]; thiosulfate:cisplatin 10:1, 4 min): 319.5 µM
Cisplatin Concentration ([5]; thiosulfate:cisplatin 10:1, 5 min): 320.3 µM
Cisplatin Concentration ([5]; thiosulfate:cisplatin 10:1, 37 min): 269.4 µM
Cisplatin Concentration ([5]; thiosulfate:cisplatin 10:1, 38 min): 278.5 µM
Cisplatin Concentration ([5]; thiosulfate:cisplatin 10:1, 70 min): 235.2 µM
Cisplatin Concentration ([5]; thiosulfate:cisplatin 10:1, 71 min): 239.6 µM
Cisplatin Concentration ([5]; thiosulfate:cisplatin 10:1, 103 min): 205.6 µM
Cisplatin Concentration ([5]; thiosulfate:cisplatin 10:1, 104 min): 209.3 µM
ototoxicity in pediatric patients ([6]; STS after a platinum based chemotherapeutic (e.g., cisplatin)): significantly reduced ototoxicity
hearing protection ([6]; dose equivalent to 5.1 g/m^2 sodium thiosulfate for injection, preliminary clinical studies): did not show hearing protection
prevention of ototoxicity ([6]; doses equivalent to 6.4 to 12.8 g/m^2 sodium thiosulfate for injection): prevented ototoxicity
survival ([6]; treatment 6 hours after completion of each CIS infusion): did not affect survival
distribution to the cochlea [7]: distribute to the cochlea
effect of STS on cytotoxicity of etoposide ([8]; immediate or delayed addition of STS, incubation for 72 hours): no reduction of cytotoxicity
effect of STS on anti-tumor activity of doxorubicin, carmustine (BCNU), paclitaxel, or methotrexate ([8]; similar studies): no reduction of anti-tumor activity
